Data: US11160280B2, “Pesticial compounds” (BASF SE, priority 2017, dated 2021)

Key:
Assay type in all cases: in vivo
[1] = system: boll weevil (Anthonomus grandis); assay: Action on boll weevil (Anthonomus grandis), eggs on insect diet in microtiter plates; details: 120 h, egg and larval mortality after 5 days, read-out: mortality in comparison with untreated controls
Description: Example B3: Action on Boll Weevil (Anthonomus grandis)
For evaluating control of boll weevil (Anthonomus grandis) the test unit consisted of 96-well-microtiter plates containing an insect diet and 5-10 A. grandis eggs.
The compounds were formulated using a solution containing 75% v/v water and 25% v/v DMSO. Different concentrations of formulated compounds were sprayed onto the insect diet at 5 μl, using a custom built micro atomizer, at two replications.
After application, microtiter plates were incubated at about 25±1° C. and about 75±5% relative humidity for 5 days. Egg and larval mortality was then visually assessed.

[2] = system: tobacco budworm (Heliothis virescens); assay: Action on tobacco budworm (Heliothis virescens), eggs on insect diet in microtiter plates; details: 120 h, egg and larval mortality after 5 days, read-out: mortality in comparison with untreated controls
Description: Example B5: Action on Tobacco Budworm (Heliothis virescens)
For evaluating control of tobacco budworm (Heliothis virescens) the test unit consisted of 96-well-microtiter plates containing an insect diet and 15-25 H. virescens eggs.
The compounds were formulated using a solution containing 75% v/v water and 25% v/v DMSO. Different concentrations of formulated compounds were sprayed onto the insect diet at 10 μl, using a custom built micro atomizer, at two replications.
After application, microtiter plates were incubated at about 28±1° C. and about 80±5% relative humidity for 5 days. Egg and larval mortality was then visually assessed.

[3] = system: Diamond Back Moth (Plutella xylostella); assay: Action on diamond back moth (Plutella xylostella), cabbage leaf dip; details: foliar, 3rd instar larvae on dipped cabbage leaves, mortality 72 hours after treatment, read-out: mortality in comparison with untreated controls
Description: Example B6: Action on Diamond Back Moth (Plutella xylostella)
The active compound is dissolved at the desired concentration in a mixture of 1:1 (vol:vol) distilled water:acetone. Surfactant (Kinetic® HV) is added at a rate of 0.01% (vol/vol). The test solution is prepared at the day of use.
Leaves of cabbage were dipped in test solution and air-dried. Treated leaves were placed in petri dishes lined with moist filter paper and inoculated with ten 3rd instar larvae. Mortality was recorded 72 hours after treatment. Feeding damages were also recorded using a scale of 0-100%.

[4] = system: Southern Armyworm (Spodoptera eridania), 2nd Instar Larvae; assay: Action on southern armyworm (Spodoptera eridania), 2nd instar larvae on sprayed lima bean plants; details: 96 h, 2nd instar larvae on lima bean plants, 4 days after treatment, read-out: mortality in comparison with untreated controls
Description: Example B7: Action on Southern Armyworm (Spodoptera eridania), 2nd Instar Larvae
The active compounds were formulated by a Tecan liquid handler in 100% cyclohexanone as a 10,000 ppm solution supplied in tubes. The 10,000 ppm solution was serially diluted in 100% cyclohexanone to make interim solutions. These served as stock solutions for which final dilutions were made by the Tecan in 50% acetone:50% water (v/v) into 10 or 20 ml glass vials. A nonionic surfactant (Kinetic®) was included in the solution at a volume of 0.01% (v/v). The vials were then inserted into an automated electrostatic sprayer equipped with an atomizing nozzle for application to plants/insects.
Lima bean plants (variety Sieva) were grown 2 plants to a pot and selected for treatment at the 1st true leaf stage. Test solutions were sprayed onto the foliage by an automated electrostatic plant sprayer equipped with an atomizing spray nozzle. The plants were dried in the sprayer fume hood and then removed from the sprayer. Each pot was placed into perforated plastic bags with a zip closure. About 10 to 11 armyworm larvae were placed into the bag and the bags zipped closed. Test plants were maintained in a growth room at about 25° C. and about 20-40% relative humidity for 4 days, avoiding direct exposure to fluorescent light (24 hour photoperiod) to prevent trapping of heat inside the bags. Mortality and reduced feeding were assessed 4 days after treatment, compared to untreated control plants.

[5] = system: yellow fever mosquito (Aedes aegypti); assay: whole plant or invertebrate; details: 48 h, larval mortality visually assessed after 2 days, read-out: mortality in comparison with untreated controls
Description: Example B1: Action on Yellow Fever Mosquito (Aedes aegypti)
For evaluating control of yellow fever mosquito (Aedes aegypti) the test unit consisted of 96-well-microtiter plates containing 200 μl of tap water per well and 5-15 freshly hatched A. aegypti larvae.
The active compounds were formulated using a solution containing 75% (v/v) water and 25% (v/v) DMSO. Different concentrations of formulated compounds or mixtures were sprayed onto the insect diet at 2.5 μl, using a custom built micro atomizer, at two replications.
After application, microtiter plates were incubated at 28+1° C., 80+5% RH for 2 days. Larval mortality was then visually assessed.

CC(C)c1ccccc1NC(=S)NN=Cc1cc(F)c2c(C(=O)N(C)c3ccc(OC(F)(F)F)cc3)nn(C)c2c1 [Example C-18, 4-fluoro-6-[[(2-isopropylphenyl)carbamothioylhydrazono]methyl]-N,1-dimethyl-N-[4-(trifluoromethoxy)phenyl]indazole-3-carboxamide]
≥ 75%: mortality at 800 ppm [1] | mortality at 800 ppm [2] | mortality at 500 ppm [3] | mortality at 300 ppm [4]

CC(C)c1ccccc1NC(=S)N/N=C/c1ccc2c(C(=O)Nc3ccc(OC(F)(F)F)cc3)nn(C)c2c1 [Example C-7, 6-[(E)-[(2-isopropylphenyl)carbamothioylhydrazono]methyl]-1-methyl-N-[4-(trifluoromethoxy)phenyl]indazole-3-carboxamide]
≥ 75%: mortality at 800 ppm [5] | mortality at 800 ppm [1] | mortality at 800 ppm [2] | mortality at 500 ppm [3] | mortality at 300 ppm [4]

CO[C@@H]1[C@@H](OC)[C@H](C)O[C@@H](OC(=O)Nc2ccc3c(NC(=O)c4ccc(OC(F)(F)F)cc4)nn(C)c3c2)[C@@H]1OC [Example C-5, [(2S,3R,4R,5S,6S)-3,4,5-trimethoxy-6-methyl-tetrahydropyran-2-yl] N-[1-methyl-3-[[4-(trifluoromethoxy)benzoyl]amino]indazol-6-yl]carbamate]
≥ 75%: mortality at 800 ppm [5] | mortality at 800 ppm [1]

CC(C)c1ccccc1N1C(=O)CS/C1=N\N=C\c1ccc2c(COc3ccc(OC(F)(F)F)cc3)nsc2c1 [Example C-23, (2Z)-3-(2-isopropylphenyl)-2-[(E)-[3-[[4-(trifluoromethoxy)phenoxy]methyl]-1,2-benzothiazol-6-yl]methylenehydrazono]thiazolidin-4-one]
≥ 75%: mortality at 800 ppm [1] | mortality at 800 ppm [2] | mortality at 500 ppm [3] | mortality at 300 ppm [4]

CC(C)c1ccccc1NC(=S)N/N=C/c1ccc2c(COc3ccc(OC(F)(F)F)cc3)noc2c1 [Example C-24, 1-(2-isopropylphenyl)-3-[(E)-[3-[[4-(trifluoromethoxy)phenoxy]methyl]-1,2-benzoxazol-6-yl]methyleneamino]thiourea]
≥ 75%: mortality at 800 ppm [1] | mortality at 800 ppm [2] | mortality at 500 ppm [3]

CC(C)c1ccccc1N1C(=O)CS/C1=N\N=C\c1ccc2c(COc3ccc(OC(F)(F)F)cc3)noc2c1 [Example C-25, (2Z)-3-(2-isopropylphenyl)-2-[(E)-[3-[[4-(trifluoromethoxy)phenoxy]methyl]-1,2-benzoxazol-6-yl]methylenehydrazono]thiazolidin-4-one]
≥ 75%: mortality at 800 ppm [5] | mortality at 800 ppm [1] | mortality at 800 ppm [2] | mortality at 500 ppm [3]

CC(C)c1ccccc1NC(=S)NN=Cc1cc(F)c2c(C(=O)Nc3ccc(OC(F)(F)F)cc3)nn(C)c2c1 [Example C-17, 4-fluoro-6-[[(2-isopropylphenyl)carbamothioylhydrazono]methyl]—1-methyl-N-[4-(trifluoromethoxy)phenyl]indazole-3-carboxamide]
≥ 75%: mortality at 800 ppm [1] | mortality at 800 ppm [2] | mortality at 300 ppm [4]

CC(C)c1ccccc1NC(=S)N/N=C/c1ccc2c(COc3ccc(OC(F)(F)F)cc3)nsc2c1 [Example C-22, 1-(2-isopropylphenyl)-3-[(E)-[3-[[4-(trifluoromethoxy)phenoxy]methyl]-1,2-benzothiazol-6-yl]methyleneamino]thiourea]
≥ 75%: mortality at 800 ppm [1] | mortality at 800 ppm [2] | mortality at 500 ppm [3] | mortality at 300 ppm [4]
